Data taken from US8663912B2, “Fluorogenic substrate for ADAMTS13” (Washington University, priority 2011, dated 2014).
“And” between values parts separate entries of the source, which are not always exact repeats. Equal entries are not always repeated. * marks the point of attachment. X1 = CC1(C)C(/C=C/C2=C(Cl)C(=C/C=C3/N(CCCCCC(=O)*)c4ccc5cc(S(=O)(=O)O)ccc5c4C3(C)C)/CCC2)=[N+](CCCS(=O)(=O)[O-])c2ccc(N(CCCS(=O)(=O)O)CCCS(=O)(=O)O)cc21; X2 = CC(C)(C)c1cc(/C=C/C=C2\N(CCCS(=O)(=O)O)c3ccc(S(=O)(=O)O)cc3C2(C)CCCC(=O)CCN2C(=O)CC(*)C2=O)c2ccc(N(CCCS(=O)(=O)[O-])CCCS(=O)(=O)O)cc2[o+]1

Biological target: T1, ADAMTS13 (Homo sapiens, UniProt Q76LX8)
T1 sequence (Q76LX8 75-1427): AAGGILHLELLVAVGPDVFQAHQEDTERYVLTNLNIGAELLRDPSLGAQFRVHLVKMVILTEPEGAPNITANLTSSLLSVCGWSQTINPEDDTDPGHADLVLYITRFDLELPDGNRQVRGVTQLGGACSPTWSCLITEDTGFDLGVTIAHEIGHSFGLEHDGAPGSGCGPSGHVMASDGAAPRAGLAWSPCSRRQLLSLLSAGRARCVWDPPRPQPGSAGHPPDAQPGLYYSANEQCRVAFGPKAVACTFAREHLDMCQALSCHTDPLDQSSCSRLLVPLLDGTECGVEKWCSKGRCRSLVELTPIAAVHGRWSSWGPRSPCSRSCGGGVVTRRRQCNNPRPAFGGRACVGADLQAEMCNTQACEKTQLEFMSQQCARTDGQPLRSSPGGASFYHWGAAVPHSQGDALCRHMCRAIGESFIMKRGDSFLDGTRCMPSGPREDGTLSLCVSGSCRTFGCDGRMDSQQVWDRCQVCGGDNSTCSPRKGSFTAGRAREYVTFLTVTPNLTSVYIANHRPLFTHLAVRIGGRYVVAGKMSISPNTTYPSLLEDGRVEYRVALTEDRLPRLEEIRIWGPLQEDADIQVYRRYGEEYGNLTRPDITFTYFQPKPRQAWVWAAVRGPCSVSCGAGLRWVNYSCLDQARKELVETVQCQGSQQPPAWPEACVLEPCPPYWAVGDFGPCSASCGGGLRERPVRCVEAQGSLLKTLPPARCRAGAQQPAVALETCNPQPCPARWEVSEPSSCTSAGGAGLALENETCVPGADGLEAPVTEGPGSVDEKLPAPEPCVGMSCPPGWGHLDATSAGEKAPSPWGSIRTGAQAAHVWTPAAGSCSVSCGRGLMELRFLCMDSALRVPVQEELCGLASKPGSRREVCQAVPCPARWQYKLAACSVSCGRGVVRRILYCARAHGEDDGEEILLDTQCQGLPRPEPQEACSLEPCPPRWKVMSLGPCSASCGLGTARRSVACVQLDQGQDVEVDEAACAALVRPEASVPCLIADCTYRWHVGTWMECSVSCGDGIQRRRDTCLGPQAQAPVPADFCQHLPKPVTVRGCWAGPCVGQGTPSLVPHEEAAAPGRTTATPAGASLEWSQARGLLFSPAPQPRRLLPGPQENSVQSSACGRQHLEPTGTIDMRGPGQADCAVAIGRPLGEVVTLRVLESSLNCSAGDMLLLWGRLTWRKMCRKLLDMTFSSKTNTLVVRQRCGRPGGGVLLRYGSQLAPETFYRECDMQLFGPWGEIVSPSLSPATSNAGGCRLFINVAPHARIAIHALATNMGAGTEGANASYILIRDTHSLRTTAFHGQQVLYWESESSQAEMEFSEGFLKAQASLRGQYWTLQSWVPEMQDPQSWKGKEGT
Test: Fluorogenic ADAMTS13 activity assay, signal and sensitivity compared between substrates
Type: biochemical
Design: from tissue; host or cells: human plasma (TTP patients, healthy controls)
Description: In these experiments, the FRETS-rVWF71 substrate was utilized in a microtiter format (FIG. 2), which is compatible with fluorescence plate readers that are supported by laboratory equipment suppliers and available in many clinical hemostasis laboratories, such as the BIO-TEK FLx800 Fluorometer from DiaPharma (West Chester, Ohio) or Technoclone (Vienna). Reactions were performed in 200 μL 5 mM Bis-Tris, pH 6, 25 mM CaCl2, at room temperature with added plasma as shown (FIG. 2). Fluorescence was monitored in a Victor^2 V microplate reader (Perkin Elmer Life Sciences, Boston, Mass.) with 638 nm excitation filter and 658 nm emission filter.
Using 1 μM substrate with varying amounts of plasma or serum and optimal filters for each substrate, ΔF/min for VWF-rFRETS71 is 8-fold greater compared to VWF-FRETS73. In addition, assays with VWF-rFRETS71 are linear with time and linear with enzyme up to >95% serum or plasma added, with no significant background fluorescence or interference from blood constituents. The combination of stronger fluorescence signal and compatibility with undiluted plasma make FRETS-rVWF71 ˜250-fold more sensitive than FRETS-VWF73.
Assays were performed at 30° C. Samples (100 μL) of plasma or serum, diluted as necessary in assay buffer, were pipetted in duplicate in 96 well white microplates (Optiplate-96, PerkinElmer, Waltham, Mass.). Reaction was initiated by addition of 100 μL substrate in assay buffer. Cleavage of FRETS-rVWF71 was detected as an increase in fluorescence compared to control reactions without added enzyme at 2 min intervals using a Victor^2V Multilabel Counter (PerkinElmer, Waltham, Mass.) or Synergy H1 Hybrid Multi-Mode Microplate Reader (Biotek, Winooski, Vt.) equipped with 635±10 nm excitation and 660±10 nm emission filters. Initial velocities were determined by fitting progress curves to the polynomial ΔF=A+Bt+Ct^2, where ΔF is the change in fluorescence, t is time, A is the y-intercept, B is the initial velocity (slope), and the term Ct^2 accounts for any decline in velocity due to substrate consumption or photobleaching.
ADAMTS13 assays with the FRETS-VWF73 substrate (Kokame, K., et al. Br. J. Haematol. 129:93-100, 2005) (Peptide International, Louisville, Ky.) were performed according to the manufacturer's instructions. Hemoglobin was prepared by hypotonic lysis of red blood cells from a voluntary donor and quantified with Drabkin's reagent (Sigma, St. Louis, Mo.).
Results with FRETS-rVWF71 and FRETS-VWF73 assayed under standard conditions (Kokame, K., et al. Br. J. Haematol. 129:93-100, 2005) correlated well with an inter-assay CV of 3.8%. Using 1 μM substrate and 5 μL PNP, the change in fluorescence (ΔF/min) for FRETS-rVWF71 (50 mM HEPES, pH 7.4, 150 mM NaCl) was 8-fold greater than for FRETS-VWF73 (5 mM Bis-Tris, pH 6).

X1-GQAPNLVYMVTGC(X2)PASDEIRRLPGDIQVVPIGVGPNANVQELERIGWPNAPILIQDFETLPREAPDLVLQR [FRETS-rVWF71]
change in fluorescence (ΔF/min) greater than for FRETS-VWF73 (1 μM substrate, 5 μL PNP, FRETS-rVWF71 in 50 mM HEPES pH 7.4, 150 mM NaCl, FRETS-VWF73 in 5 mM Bis-Tris pH 6): 8 fold
ΔF/min greater compared to FRETS-VWF73 (1 μM substrate, varying amounts of plasma or serum, optimal filters for each substrate): 8 fold
assay sensitivity relative to FRETS-VWF73 (equal concentrations of plasma as the enzyme source): approximately 8 fold
overall sensitivity relative to FRETS-VWF73 (stronger fluorescence signal combined with undiluted plasma): ~250 fold and 240 fold
further increase of sensitivity relative to FRETS-VWF73 (use in undiluted plasma): 30 fold
